Measurements from patent publication US20100234238A1, “METHOD FOR PROFILING KINASE INHIBITORS” (Janssen Pharmaceutica N V, priority 2006, published 2010).

Tested on: tyrosine kinase activity in lysates prepared from cell lines
Assay: PAMCHIP96 tyrosine peptide array profiling of lysates of 27 cell lines in absence or presence of MTKI
Format: biochemical
Settings: 5 μM
Source text: PAMGENE technology using the tyrosine peptide PAMCHIP96 allows the kinetic detection of the phosphorylation of 144 tyrosine peptides spotted onto a 3-dimensional porous well of a 96-well plate (www.pamgene.com). This technology can be used to measure the activity of purified kinases and the effects of kinase inhibitors thereon. Phosphotyrosine peptides are detected using a mix of fluorescently labeled anti-phosphotyrosine antibodies. Phosphorylation of peptides can be followed in real time due to the possibility of removing the reaction mix for a few seconds during the assay by a pumping mechanism to allow CCD camera detection of phosphopeptides bound to the fluorescent antibody. These consecutive datapoints (quantified spot images) generate a kinetic curve for each individual peptide, and allow for the calculation of initial velocities and endpoints associated with each individual peptide.
Cells cultured in appropriate medium in T175 flasks, treated with compound if necessary, are harvested at 70-90% confluency.
Media is removed, cells are washed with 10 ml ice cold PBS containing 0.1 mM NaVO4 and lysed in 1 ml of M-PER buffer (PIERCE) containing phosphatase and protease inhibitors (HALT, PIERCE). Cells are collected by scraping, and centrifuged for 10 minutes at 12 000×g. Supernatant lysates are filtered through a 0.2 micrometer filter (Anotop 0.2 μm anopore filter; Whatmann). Lysates are flash frozen in liquid nitrogen and stored at −80C.
Just prior to the PAMCHIP experiment, total protein content is quantitated in the lysates and lysates are diluted to 1 mg/ml in a total volume of 200 μl, with M-PER phosphatase and protease inhibitors (HALT, PIERCE). 10 μg of total lysate (corresponding to 10 μl) will be used per well on the PAMCHIP96.
To all 200 μl lysates 10 units of benzonase (Novagen) is added and lysates are further incubated for 30 min on ice and next centrifuged for 10 minutes at 12 000×g. The supernatant is then 1:1 diluted with compound or DMSO diluted to the appropriate concentration in water, and lysates are further incubated exactly 60 min on ice. Meanwhile, a PAMCHIP96 tyrosine peptide chip (PAMGENE) is blocked with 2% BSA (filtered through a 0.2 μm anopore filter; Whatmann) using the standard setting of a PAMSTATION96 (PAMGENE).
The composition of the kinase buffer is as follows: 1×ABL buffer (NEB), 0.5 mg/ml BSA (from 10 mg/ml NEB stock), 100 μM ATP (dissolved and diluted in 1×ABL buffer), 5 μg/ml PY20-FITC (ExAlpha Biologicals, azide-free preparation). A twofold concentrated kinase buffer is prepared chilled on ice, DMSO or compound is added as appropriate, and the solution is added 1:1 to the (compound treated) ice cold lysates, and immediately applied to a tyrosine peptide PAMCHIP96. The assay is run on a PAMSTATION96 according to standard procedures: after loading of the plate, solution is pumped once onto the wells, a first exposure is read (150 mSec) and then a kinetic reading program (reading every 5 min for 150 mSec) is run for 60 min. Lysates are run in 6 technical replicates for each condition; replicates are always applied horizontally next to each other to avoid vertical strip effects of the chip.
The data (spot images) are further quantified and linked to the peptide identities using EVOLVE PAMGRID software (PAMGENE). The quantified data are then fit to a curve using CurveFitHT software (PAMGENE) using the Vinip2 curve fitting algorithm, applied on the first 30 min of the assay; the initial velocity is derived at the first kinetic time point read. All subsequent data analyses were done on initial velocities (Vini) using the software packages Omniviz and R (Ihaka, R. and Gentlemen, R. (1996) R: a language for data analysis and graphics. J. Comput. Graph. Stat., 5, 299-314).
After replacing the Vini's lower than 0.1 by 0.1, all Vini's were log 2-transformed to approach normality.

For `COc1cc2ncnc3c2cc1OCCCCCN(C)Cc1ccc(Br)cc1N3` [MTKI, 4,6-ethanediylidenepyrimido[4,5-b][6,1,12]benzoxadiazacyclopentadecine, 17-bromo-8,9,10,11,12,13,14,19-octahydro-20-methoxy-13-methyl-], the “ratio of initial velocity of peptide phosphorylation” value (from here on “ratio”) (A431 lysate, CDK7_157_169_S164) was 0.53, the “ratio” value (A431 lysate, CREB1_122_134_Y134/S133) was 0.63 and the “ratio” value (A431 lysate, DDR2_733_745_Y740) was 0.56. The “ratio” value (A431 lysate, MK10_216_228_T221/Y223) was 0.46, the “ratio” value (A431 lysate, NCF1_313_325_S315/S320) was 0.57 and the “ratio” value (A431 lysate, NPT2_501_513_T508) was 0.53. For the same compound, the “ratio” value (A431 lysate, PECA1_706_718_Y713) was 0.72, the “ratio” value (A431 lysate, PGFRB_768_780_Y771/Y775/Y778) was 0.97 and the “ratio” value (A431 lysate, PLCG1_764_776_Y771) was 0.82. The “ratio” value (A431 lysate, PRRX2_202_214_Y214) was 0.75, the “ratio” value (A431 lysate, RASA1_453_465_Y460) was 0.62 and the “ratio” value (A431 lysate, STAT2_683_695_Y690) was 0.57. For the same compound, the “ratio” value (A431 lysate, SYN1_2_14_S9) was 0.58, the “ratio” value (A431 lysate, TYRO3_679_691_Y686) was 0.52 and the “ratio” value (H322 lysate, CDK7_157_169_S164) was 0.88. For the same compound, the “ratio” value (H322 lysate, CREB1_122_134_Y134/S133) was 0.94, the “ratio” value (H322 lysate, DDR2_733_745_Y740) was 0.85 and the “ratio” value (H322 lysate, ENOG_37_49_Y43) was 0.76. For the same compound, the “ratio” value (H322 lysate, MK10_216_228_T221/Y223) was 0.76, the “ratio” value (H322 lysate, NCF1_313_325_S315/S320) was 0.88 and the “ratio” value (H322 lysate, NPT2_501_513_T508) was 0.88. The “ratio” value (H322 lysate, PECA1_706_718_Y713) was 0.73, the “ratio” value (H322 lysate, PGFRB_768_780_Y771/Y775/Y778) was 0.92 and the “ratio” value (H322 lysate, PLCG1_764_776_Y771) was 0.79. The “ratio” value (H322 lysate, PRRX2_202_214_Y214) was 0.85, the “ratio” value (H322 lysate, RASA1_453_465_Y460) was 0.83 and the “ratio” value (H322 lysate, STAT2_683_695_Y690) was 0.89. For the same compound, the “ratio” value (H322 lysate, SYN1_2_14_S9) was 0.91, the “ratio” value (H322 lysate, TYRO3_679_691_Y686) was 0.96 and the “ratio” value (H2122 lysate, CDK7_157_169_S164) was 0.90. For the same compound, the “ratio” value (H2122 lysate, CREB1_122_134_Y134/S133) was 0.85, the “ratio” value (H2122 lysate, DDR2_733_745_Y740) was 0.81 and the “ratio” value (H2122 lysate, ENOG_37_49_Y43) was 0.71. For the same compound, the “ratio” value (H2122 lysate, MK10_216_228_T221/Y223) was 0.79, the “ratio” value (H2122 lysate, NCF1_313_325_S315/S320) was 0.94 and the “ratio” value (H2122 lysate, NPT2_501_513_T508) was 0.90. For the same compound, the “ratio” value (H2122 lysate, PECA1_706_718_Y713) was 0.67, the “ratio” value (H2122 lysate, PLCG1_764_776_Y771) was 0.76 and the “ratio” value (H2122 lysate, PRRX2_202_214_Y214) was 0.84. The “ratio” value (H2122 lysate, RASA1_453_465_Y460) was 0.78, the “ratio” value (H2122 lysate, STAT2_683_695_Y690) was 0.90 and the “ratio” value (H2122 lysate, SYN1_2_14_S9) was 0.91. The “ratio” value (H2122 lysate, TYRO3_679_691_Y686) was 0.95, the “ratio” value (H3255 lysate, CDK7_157_169_S164) was 0.55 and the “ratio” value (H3255 lysate, CREB1_122_134_Y134/S133) was 0.73. For the same compound, the “ratio” value (H3255 lysate, DDR2_733_745_Y740) was 0.44, the “ratio” value (H3255 lysate, ENOG_37_49_Y43) was 0.76 and the “ratio” value (H3255 lysate, MK10_216_228_T221/Y223) was 0.47. The “ratio” value (H3255 lysate, NCF1_313_325_S315/S320) was 0.59, the “ratio” value (H3255 lysate, NPT2_501_513_T508) was 0.68 and the “ratio” value (H3255 lysate, PECA1_706_718_Y713) was 0.68. For the same compound, the “ratio” value (H3255 lysate, PGFRB_768_780_Y771/Y775/Y778) was 0.12, the “ratio” value (H3255 lysate, PLCG1_764_776_Y771) was 0.97 and the “ratio” value (H3255 lysate, PRRX2_202_214_Y214) was 0.67. The “ratio” value (H3255 lysate, RASA1_453_465_Y460) was 0.65, the “ratio” value (H3255 lysate, STAT2_683_695_Y690) was 0.72 and the “ratio” value (H3255 lysate, SYN1_2_14_S9) was 0.70. For the same compound, the “ratio” value (H3255 lysate, TYRO3_679_691_Y686) was 0.47, the “ratio” value (NCI-N87 lysate, CDK7_157_169_S164) was 0.82 and the “ratio” value (NCI-N87 lysate, CREB1_122_134_Y134/S133) was 0.82. For the same compound, the “ratio” value (NCI-N87 lysate, DDR2_733_745_Y740) was 0.95, the “ratio” value (NCI-N87 lysate, ENOG_37_49_Y43) was 0.91 and the “ratio” value (NCI-N87 lysate, MK10_216_228_T221/Y223) was 0.73. For the same compound, the “ratio” value (NCI-N87 lysate, NCF1_313_325_S315/S320) was 0.89, the “ratio” value (NCI-N87 lysate, NPT2_501_513_T508) was 0.88 and the “ratio” value (NCI-N87 lysate, PECA1_706_718_Y713) was 0.82. The “ratio” value (NCI-N87 lysate, PGFRB_768_780_Y771/Y775/Y778) was 0.32, the “ratio” value (NCI-N87 lysate, PLCG1_764_776_Y771) was 0.78 and the “ratio” value (NCI-N87 lysate, PRRX2_202_214_Y214) was 0.82. The “ratio” value (NCI-N87 lysate, RASA1_453_465_Y460) was 0.59, the “ratio” value (NCI-N87 lysate, STAT2_683_695_Y690) was 0.83 and the “ratio” value (NCI-N87 lysate, SYN1_2_14_S9) was 0.75. The “ratio” value (NCI-N87 lysate, TYRO3_679_691_Y686) was 0.85, the “ratio” value (SKBR3 lysate, CDK7_157_169_S164) was 0.97 and the “ratio” value (SKBR3 lysate, CREB1_122_134_Y134/S133) was 0.99. The “ratio” value (SKBR3 lysate, DDR2_733_745_Y740) was 0.93, the “ratio” value (SKBR3 lysate, MK10_216_228_T221/Y223) was 0.68 and the “ratio” value (SKBR3 lysate, NCF1_313_325_S315/S320) was 0.94. The “ratio” value (SKBR3 lysate, NPT2_501_513_T508) was 0.77, the “ratio” value (SKBR3 lysate, PECA1_706_718_Y713) was 0.68 and the “ratio” value (SKBR3 lysate, PLCG1_764_776_Y771) was 0.75. The “ratio” value (SKBR3 lysate, PRRX2_202_214_Y214) was 0.75, the “ratio” value (SKBR3 lysate, RASA1_453_465_Y460) was 0.88 and the “ratio” value (SKBR3 lysate, STAT2_683_695_Y690) was 0.81. The “ratio” value (SKBR3 lysate, SYN1_2_14_S9) was 1.03, the “ratio” value (SKBR3 lysate, TYRO3_679_691_Y686) was 0.90 and the “ratio” value (SNU484 lysate, CDK7_157_169_S164) was 0.67. For the same compound, the “ratio” value (SNU484 lysate, CREB1_122_134_Y134/S133) was 0.70, the “ratio” value (SNU484 lysate, DDR2_733_745_Y740) was 0.75 and the “ratio” value (SNU484 lysate, ENOG_37_49_Y43) was 0.68. The “ratio” value (SNU484 lysate, MK10_216_228_T221/Y223) was 0.72, the “ratio” value (SNU484 lysate, NCF1_313_325_S315/S320) was 0.80 and the “ratio” value (SNU484 lysate, NPT2_501_513_T508) was 0.85. For the same compound, the “ratio” value (SNU484 lysate, PECA1_706_718_Y713) was 0.64, the “ratio” value (SNU484 lysate, PLCG1_764_776_Y771) was 0.70 and the “ratio” value (SNU484 lysate, PRRX2_202_214_Y214) was 0.67. For the same compound, the “ratio” value (SNU484 lysate, RASA1_453_465_Y460) was 0.58, the “ratio” value (SNU484 lysate, STAT2_683_695_Y690) was 0.73 and the “ratio” value (SNU484 lysate, SYN1_2_14_S9) was 0.67. The “ratio” value (SNU484 lysate, TYRO3_679_691_Y686) was 0.85.
